From patent publication US10253002B2, “Compounds and methods of treating infections” (Neoculi Pty Ltd., priority 2013, dated 2019)

What follows are compounds tested on MRSA (assay: Broth microdilution MIC, Example 7 (NCL812 and analogues)). Conditions: MIC testing, two MRSA strains.
Format: cell-based, Staphylococcus aureus
Description: (§1) Minimum inhibitory concentrations (μg/ml) were determined using the broth microdilution method recommended by the Clinical and Laboratory Standards Institute (CLSI). MIC breakpoints were determined by visual assessment and then confirmed using an ELISA plate reader, measuring absorbance levels at 600 nm. Bacterial growth (turbidity) in the wells with antimicrobial was compared with the amount of growth (turbidity) in the growth-control well (containing no antimicrobial). All isolates were tested in duplicate, if there was a difference of greater than one two-fold dilution in the results, the test was repeated a third time. The purity of the isolates was closely monitored during testing by subculturing the prepared bacterial inoculum onto SBA (sheep blood agar). […] The MIC50, MIC20 and MIC range (minimum and maximum) were calculated for each of the bacterial groups.
(§2) MICs were determined against two MRSA strains, two VRE strains and one strain each of E. coli and Pseudomonas aeruginosa.

| Compound | activity against MRSA among analogues |
| --- | --- |
| COc1cc(/C=N/NC(=N)N/N=C/c2ccc(O)c(OC)c2)ccc1O.Cl [NCL117] | greatest activity |
| CCCCc1ccc(C=NNC(=N)NN=Cc2ccc(CCCC)cc2)cc1.Cl [NCL136] | greatest activity |
| Cl.N=C(NN=CC(=Cc1ccccc1)c1ccccc1)NN=CC(=Cc1ccccc1)c1ccccc1 [NCL138] | greatest activity |
| CSc1ccc(C=NNC(=N)NN=Cc2ccc(SC)cc2)cc1.Cl [NCL140] | greatest activity |
| COc1ccc(C=CC=NNC(=N)NN=CC=Cc2ccc(OC)cc2)cc1.Cl [NCL150] | greatest activity |
| Cl.N=C(NN=Cc1ccc(O)cc1)NN=Cc1ccc(O)cc1 [NCL151] | greatest activity |
| Cl.N=C(NN=C(c1ccc(Cl)cc1O)C1CCCC1)NN=C(c1ccc(Cl)cc1O)C1CCCC1 [NCL159] | greatest activity |
| Cl.N=C(NN=Cc1ccc(OC(F)(F)F)cc1)NN=Cc1ccc(OC(F)(F)F)cc1 [NCL160] | greatest activity |
| CC(=NNC(=N)NN=C(C)c1ccc(N2CCNCC2)cc1)c1ccc(N2CCNCC2)cc1.Cl [NCL161] | greatest activity |
| Cl.N=C(NN=Cc1ccc(SC(F)(F)F)cc1)NN=Cc1ccc(SC(F)(F)F)cc1 [NCL166] | greatest activity |
| CC(=NNC(=N)NN=C(C)c1ccccn1)c1ccccn1.Cl [NCL172] | greatest activity |
| C/C(=N\Nc1cc(N/N=C(\C)c2ccc(Cl)cc2)ncn1)c1ccc(Cl)cc1 [NCL178] | greatest activity |
| OC/C(=N\Nc1cc(N/N=C(\CO)c2ccc(Cl)cc2)ncn1)c1ccc(Cl)cc1 [NCL180] | greatest activity |
| Clc1ccc(/C=N/Nc2cc(N/N=C/c3ccc(Cl)cc3)ncn2)cc1 [NCL181] | greatest activity |
| CC(Nc1cc(Cl)nc(N)n1)c1ccccc1 (stereo not drawn) [NCL182] | greatest activity |
| CC(Nc1cc(NC(C)c2ccccc2)ncn1)c1ccccc1 (stereo not drawn) [NCL183] | greatest activity |
| CC(Nc1cc(NC(C)c2ccccc2)nc(N)n1)c1ccccc1 (stereo not drawn) [NCL184] | greatest activity |
| C/C(=N\Nc1cc(N/N=C(\C)c2ccc(Cl)cc2)ncn1)c1ccc(Cl)cc1.Cl [NCL185] | greatest activity |

The compounds below were run on VRE in the same assay as above. Conditions: MIC testing, two VRE strains.
Format: cell-based, Enterococcus spp.
Description: as §1, §2

| Compound | activity against VRE among analogues |
| --- | --- |
| COc1cc(/C=N/NC(=N)N/N=C/c2ccc(O)c(OC)c2)ccc1O.Cl [NCL117] | greatest activity |
| CCCCc1ccc(C=NNC(=N)NN=Cc2ccc(CCCC)cc2)cc1.Cl [NCL136] | greatest activity |
| CSc1ccc(C=NNC(=N)NN=Cc2ccc(SC)cc2)cc1.Cl [NCL140] | greatest activity |
| Cl.N=C(NN=Cc1ccc(O)cc1)NN=Cc1ccc(O)cc1 [NCL151] | greatest activity |
| Cl.N=C(NN=C(c1ccc(Cl)cc1O)C1CCCC1)NN=C(c1ccc(Cl)cc1O)C1CCCC1 [NCL159] | greatest activity |
| Cl.N=C(NN=Cc1ccc(OC(F)(F)F)cc1)NN=Cc1ccc(OC(F)(F)F)cc1 [NCL160] | greatest activity |
| CC(=NNC(=N)NN=C(C)c1ccc(N2CCNCC2)cc1)c1ccc(N2CCNCC2)cc1.Cl [NCL161] | greatest activity |
| Cl.N=C(NN=Cc1ccc(SC(F)(F)F)cc1)NN=Cc1ccc(SC(F)(F)F)cc1 [NCL166] | greatest activity |
| C/C(=N\Nc1cc(N/N=C(\C)c2ccc(Cl)cc2)ncn1)c1ccc(Cl)cc1 [NCL178] | greatest activity |
| OC/C(=N\Nc1cc(N/N=C(\CO)c2ccc(Cl)cc2)ncn1)c1ccc(Cl)cc1 [NCL180] | greatest activity |
| Clc1ccc(/C=N/Nc2cc(N/N=C/c3ccc(Cl)cc3)ncn2)cc1 [NCL181] | greatest activity |
| CC(Nc1cc(Cl)nc(N)n1)c1ccccc1 (stereo not drawn) [NCL182] | greatest activity |
| CC(Nc1cc(NC(C)c2ccccc2)ncn1)c1ccccc1 (stereo not drawn) [NCL183] | greatest activity |
| CC(Nc1cc(NC(C)c2ccccc2)nc(N)n1)c1ccccc1 (stereo not drawn) [NCL184] | greatest activity |
| C/C(=N\Nc1cc(N/N=C(\C)c2ccc(Cl)cc2)ncn1)c1ccc(Cl)cc1.Cl [NCL185] | greatest activity |

Same assay, conditions: bioassay ranking, VRE

| Compound | VRE |
| --- | --- |
| CSc1ccc(C=NNC(=N)NN=Cc2ccc(SC)cc2)cc1.Cl [NCL140] | 5 µg/mL |
| OC/C(=N\Nc1cc(N/N=C(\CO)c2ccc(Cl)cc2)ncn1)c1ccc(Cl)cc1 [NCL180] | 32 µg/mL |
| CC(Nc1cc(NC(C)c2ccccc2)nc(N)n1)c1ccccc1 (stereo not drawn) [NCL184] | 32 µg/mL |
